Source: ChEMBL document CHEMBL2028040, “Malaria Box”

Columns and labels:
Plasmodium falciparum [1] = assay: MMV: Inhibition of Plasmodium falciparum 3D7 at 5uM compound concentration.; type: functional
Plasmodium falciparum [2] = assay: MMV: Inhibition of Plasmodium falciparum 3D7 (EC50).; type: functional, organism-based
Trypanosoma cruzi = assay: MMV: Inhibition of Trypanosoma cruzi (Tulahuen C4 LacZ) (Chagas in vitro).; type: functional, organism-based
[3] = system: Trypanosoma brucei brucei; assay: MMV: Inhibition of Trypanosoma brucei brucei (Squib 427) (HAT in vitro).; type: functional, organism-based
[4] = system: Trypanosoma brucei rhodesiense; assay: MMV: Inhibition of Trypanosoma brucei rhodesiense (STIB 900) (HAT in vitro).; type: functional, organism-based
Leishmania infantum = assay: MMV: Inhibition of Leishmania infantum (MHOM/MA/BE/67) in vitro.; type: functional, organism-based
[5] = MMV: Cytotoxicity against human fibroblasts (MRC-5) cells.; conditions: MRC-5 cells (human fibroblasts)

Row | Compound | EC50 (Plasmodium falciparum [2]) [µM] | IC50 (Trypanosoma cruzi) [µM] | IC50 [3] [µM] | IC50 [4] [µM] | IC50 (Leishmania infantum) [µM] | inhibition at 5 µM (Plasmodium falciparum [1]) [%] | IC50 [5] [µM]
1 | O=C(Nc1ccc(-c2nc3cc4ccccc4cc3[nH]2)cc1)c1cccc(Br)c1 | 0.45 | > 32 | > 32 | > 32 | > 32 | 93 | > 32
2 | COc1ccc(CCN2CCC(CN(C)Cc3cnn(-c4ccccc4)c3)CC2)cc1 | 1.43 | 6.43 | 0.86 | 0.254 | 12 | 96 | 18.6
3 | CCn1c2c(c(=N)c3c1CCC3)CCCC2 | 0.695 | 9.02 | > 32 | > 32 | > 32 | 77 | 32
4 | CC(Oc1ccc(NC(=O)c2cccs2)cc1)C(=O)c1ccc(Cl)cc1 (stereo not given) | 1.03 | 15.4 | 15.5 | 10.3 | > 32 | 87 | > 32
5 | COc1ccc(CCNC(=O)c2cc(S(=O)(=O)N3CC(C)CC(C)C3)ccc2Sc2ccc(F)cc2)cc1OC (stereo not given) | 0.632 | > 32 | > 32 | > 32 | > 32 | 97 | > 32
6 | Cc1ccc2cc3c(N)c4c(C)ccc(C)c4nc3nc2c1 | 1.31 | 4.56 | 4.09 | 1.19 | 4.32 | 98 | 11.4
7 | C=C(C)CCC(C)N1CCC(N2CCC(C(=O)NCCc3ccccc3)CC2)CC1 (stereo not given) | 1.75 | 18.2 | 17.7 | 7.79 | > 32 | 96 | 19
8 | O=C(NCC1Cc2cccc(-c3ccncc3)c2O1)c1csc2c1CCCC2 (stereo not given) | 1.72 | 5.16 | 16.5 | 13.9 | > 32 | 87 | 28.5
9 | CC1CC(C)CN(C(=O)c2ccc(Cl)cc2Cl)C1 (stereo not given) | 0.756 | 24.7 | > 32 | > 32 | 17.3 | 95 | > 32
10 | CCOc1cc(Br)c(C(C)NC(=O)c2cccc(OC)c2)cc1OCC (stereo not given) | 1.43 | > 32 | > 32 | > 32 | > 32 | 96 | > 32
11 | Cc1ccc(-c2cc(C(=O)Nc3ccc(S(=O)(=O)N4CCCCC4)cc3)[nH]n2)c(O)c1 | 0.535 | > 32 | > 32 | > 32 | > 32 | 94 | > 32
12 | COc1cc(-c2nc(-c3ccccc3)c(-c3ccccc3)[nH]2)cc(OC)c1O | 1.18 | 28.3 | 11.9 | 9.75 | 25.4 | 97 | > 32
13 | Nc1ccc(-c2nc3cc(Oc4ccc(Oc5ccc6[nH]c(-c7ccc(N)cc7)nc6c5)cc4)ccc3[nH]2)cc1 | 0.842 | 3.91 | 1.94 | 2.74 | 4.06 | 97 | 8
14 | Fc1ccc2[nH]c3c(NCCCN4CCOCC4)ncnc3c2c1 | 0.345 | > 32 | > 32 | 18.3 | > 32 | 98 | > 32
15 | O=C(Nc1ccc(CN2CCOCC2)cc1)c1ccc(-c2ccc(Br)cc2)o1 | 1.36 | 11 | 3.61 | 3.86 | 18.4 | 96 | 4.81
16 | COc1ccc(C(=O)Nc2nonc2-c2ccc(OC)c(OC)c2)cc1Cl | 0.516 | > 32 | > 32 | > 32 | > 32 | 92 | > 32
17 | CCCCCCOC(=O)C1=C(C)NC(=O)NC1c1ccccc1F (stereo not given) | 0.106 | > 32 | > 32 | > 32 | 18.4 | 95 | > 32
18 | Cc1cc(C)c2nc(N3CCC(C(=O)NCCCN4CCC(N5CCCCC5)CC4)CC3)sc2c1 | 0.697 | 0.85 | 0.22 | < 0.125 | 4.06 | 98 | 4.25
19 | O=C(Nc1ccc(CN2CCOCC2)cc1)c1ccc(-c2cc(Cl)ccc2Cl)o1 | 1.95 | 12.1 | 14.9 | 4.44 | 25.4 | 97 | 17.4
20 | CCOc1ccc(-n2cc(-c3ccccc3)c3c(SCc4cc(C)ccc4C)ncnc32)cc1 | 1.71 | > 32 | > 32 | 25 | > 32 | 97 | > 32
21 | CCCCc1ccc(NS(=O)(=O)c2cc3c4c(c2)CCN4C(=O)CC3)cc1 | 0.538 | 13.6 | > 32 | 16.3 | 19 | 96 | 5.61
22 | CCOc1ccc(CN2CCN(CC(O)COc3ccc(OCC(O)CN4CCN(Cc5ccc(OCC)cc5)CC4)cc3)CC2)cc1 (stereo not given) | 1.2 | 2.54 | 3.52 | 0.964 | 2.52 | 97 | 10.7
23 | Cc1nc2ccccc2c(O)c1CC=C(Cl)Cl | 0.836 | 1.88 | > 32 | > 32 | > 32 | 89 | > 32
24 | CCCn1c(=N)c(C(=O)NC2CCCCC2)cc2c(=O)n3cccc(C)c3nc21 | 1.11 | > 32 | 16.1 | 8.44 | > 32 | 96 | > 32
25 | Cc1ccc2nc(C)cc(Nc3cccc(C(F)(F)F)c3)c2c1 | 1.17 | 5.96 | 4.12 | 3.86 | 3.06 | 98 | 28.9
26 | COc1ccc(Nc2nc(N/N=C/c3ccc(O)cc3)nc(Nc3ccc([N+](=O)[O-])cc3)n2)cc1 | 0.532 | 18.6 | 14.7 | 9.88 | 21.5 | 98 | > 32
27 | O=C(NCCCN1CCC(N2CCCCC2)CC1)C1=Cc2cc(Br)ccc2OC1 | 0.563 | 4.22 | 0.805 | 0.859 | 4.03 | 99 | 12
28 | CCOC(=O)c1cnc2ccc(Cl)cc2c1NCCCN(C)C | 1.19 | 16.2 | 7.4 | 4.19 | 16.1 | 98 | > 32

The next lines start with results.

Row | EC50 (Plasmodium falciparum [2]) [µM] | IC50 (Trypanosoma cruzi) [µM] | IC50 [3] [µM] | IC50 [4] [µM] | IC50 (Leishmania infantum) [µM] | Compound | inhibition at 5 µM (Plasmodium falciparum [1]) [%] | IC50 [5] [µM]
29 | 0.693 | > 32 | > 32 | > 32 | > 32 | Cc1cc(NC(=O)c2ccc(-c3ccccc3)cc2)no1 | 95 | > 32
30 | 0.242 | 0.415 | 21 | 16.2 | > 32 | CCCc1c(CC)c(=N)c2ccccc2n1C | 69 | 30.6
31 | 1.43 | 8.64 | 18.4 | 4.06 | 16.2 | COc1cc(OC)cc(N2C(=O)N(Cc3ccc(C(C)(C)C)cc3)c3ccccc3S2(=O)=O)c1 | 97 | > 32
32 | 1.16 | 23 | 5.04 | 2.34 | > 32 | CC(C)=CCN1CCC(C(=O)Nc2ccc(-c3nc4ccccc4[nH]3)cc2)CC1 | 96 | > 32
33 | 1.14 | 24.5 | 10.9 | 10.7 | > 32 | COc1nc(Nc2ccc(C(C)C)cc2)nc(OC)n1 | 88 | > 32
34 | 1.12 | > 32 | > 32 | > 32 | > 32 | Cc1ccccc1OCCSc1nc2ccc(NC(=O)c3ccccc3)cc2s1 | 93 | > 32
35 | 0.771 | > 32 | 6.26 | 4.03 | > 32 | Cc1[nH]c(-c2ccc(F)cc2)cc1C(=O)NC1CCN(Cc2ccccc2)CC1 | 99 | > 32
36 | 1.01 | > 32 | 14 | 3.83 | > 32 | O=C(NC1CCN(Cc2ccccc2)CC1)c1cc(-c2cccnc2)nc2ccc(Cl)cc12 | 91 | > 32
37 | 1.79 | > 32 | > 32 | > 32 | > 32 | CC(=O)NCCc1nc2ccccc2n1Cc1ccc(C(C)C)cc1 | 97 | > 32
38 | 0.995 | > 32 | > 32 | 27.4 | > 32 | O=c1nc(C=Cc2ccc(Cl)cc2)oc2ccccc12 | 76 | > 32
39 | 1.14 | 3.65 | 4.06 | 3.7 | 4.76 | O=C(Cc1ccccc1)NC(c1ccc(Cl)cc1)c1c(O)ccc2ccccc12 (stereo not given) | 97 | 8.22
40 | 1.22 | > 32 | 3.37 | 2.54 | > 32 | COc1cc(C(=O)Nc2ccc(-c3nc4ccccc4[nH]3)cc2)cc(OC)c1OC | 95 | > 32
